From patent US7176228B2, “Pyrazole biphenylcarboxamides” (Bayer Cropscience AG, priority 2000, dated 2007)

Assay: logP determination by HPLC on a reversed-phase column (EEC Directive 79/831 Annex V.A8)
Format: physicochemical
Conditions: reversed-phase C18 HPLC column, reversed-phase column (C 18), 43° C., acidic range (a): 0.1% aqueous phosphoric acid, acetonitrile gradient 10% to 90%
Description: [table] Calibration was carried out using unbranched alkan-2-ones (having 3 to 16 carbon atoms) with known logP values (determination of the logP values by the retention times using linear interpolation between two successive alkanones).

SMILES	chromatographic logP
CCCCO/N=C/c1ccc(-c2ccccc2NC(=O)c2cn(C)nc2C(F)(F)F)cc1 [Example 22]	4.26
CO/N=C/c1ccc(-c2ccccc2NC(=O)c2ccccc2I)cc1 [Example 45]	3.73
CO/N=C/c1ccc(-c2ccccc2NC(=O)c2ccoc2C)cc1 [Example 42]	3.47
CO/N=C\c1ccc(-c2ccccc2NC(=O)c2c(C)nn(C)c2Cl)cc1 [Example 17]	3.24
CO/N=C\c1cc(-c2ccccc2NC(=O)c2cn(C)nc2C(F)(F)F)ccc1/C=N/OC [Example 50]	3.36
CO/N=C/c1ccc(-c2ccccc2NC(=O)c2ccccc2C(F)(F)F)cc1 [Example 36]	3.75
CO/N=C/c1ccc(-c2ccccc2NC(=O)c2ccccc2Br)cc1 [Example 39]	3.61
Cc1nc(C(F)(F)F)c(C(=O)Nc2ccccc2-c2ccc(/C=N\O)cc2)s1 [Example 30]	2.78
CO/N=C/c1cccc(-c2ccccc2NC(=O)c2sc(C)nc2C(F)(F)F)c1 [Example 2]	3.42
CO/N=C/c1ccc(-c2ccccc2NC(=O)c2sc(N(C)C)nc2C(F)(F)F)cc1 [Example 32]	3.84
CO/N=C/c1ccc(-c2ccccc2NC(=O)c2cccnc2OC)cc1 [Example 33]	4.12
CO/N=C/c1ccc(-c2ccccc2NC(=O)c2ccc(OC)nc2OC)cc1 [Example 34]	4.73
CO/N=C/c1ccc(-c2ccccc2NC(=O)c2ccccc2Cl)cc1 [Example 38]	3.59
CO/N=C/c1cccc(-c2ccccc2NC(=O)c2ccoc2C)c1 [Example 43]	3.47
CO/N=C/c1ccc(-c2ccccc2NC(=O)c2cccnc2C)cc1 [Example 35]	2.04
CO/N=C/c1cccc(-c2ccccc2NC(=O)c2ccccc2C(F)(F)F)c1 [Example 44]	3.76
CO/N=C/c1ccc(-c2ccccc2NC(=O)c2cn(C)nc2C(F)(F)F)cc1Cl [Example 49]	3.54
CO/N=C/c1ccc(-c2ccccc2NC(=O)c2ccccc2C)cc1 [Example 40]	3.56
CO/N=C/c1ccc(-c2ccccc2NC(=O)c2sc(Cl)nc2C(F)(F)F)cc1 [Example 37]	4.08
CO/N=C/c1ccc(-c2ccccc2NC(=O)c2sccc2C)cc1 [Example 47]	3.86
CO/N=C/c1cccc(-c2ccccc2NC(=O)c2sccc2C)c1 [Example 48]	3.84
Cc1nc(C(F)(F)F)c(C(=O)Nc2ccccc2-c2ccc(/C=N\OC(C)C)cc2)s1 [Example 5]	4.23
CO/N=C/c1cccc(-c2ccccc2NC(=O)c2ccccc2I)c1 [Example 46]	3.73
Cn1cc(C(=O)Nc2ccccc2-c2ccc(/C=N\O)cc2)c(C(F)(F)F)n1 [Example 41]	3.19
CCCO/N=C/c1ccc(-c2ccccc2NC(=O)c2sc(C)nc2C(F)(F)F)cc1 [Example 23]	4.26
CCCO/N=C/c1ccc(-c2ccccc2NC(=O)c2cn(C)nc2C(F)(F)F)cc1 [Example 28]	3.86
CO/N=C\c1ccc(-c2ccccc2NC(=O)c2cn(C)cc2C)cc1 [Example 19]	5.1
CCCCO/N=C\c1ccc(-c2ccccc2NC(=O)c2sc(C)nc2C(F)(F)F)cc1 [Example 3]	4.65

Now from value to molecule:

chromatographic logP	SMILES
4	CO/N=C/c1cccc(-c2ccccc2NC(=O)c2sc(N(C)C)nc2C(F)(F)F)c1 [Example 73]
3.26	CO/N=C/c1cccc(-c2ccccc2NC(=O)c2ccc([N+](=O)[O-])o2)c1 [Example 102]
3.26	CO/N=C/c1cccc(-c2ccccc2NC(=O)c2sc(C)nc2C(F)F)c1 [Example 61]
3.1	CO/N=C/c1ccc(-c2ccccc2NC(=O)c2ccsc2)cc1 [Example 108]
3.78	CO/N=C/c1ccc(-c2ccccc2NC(=O)c2ccc(Br)o2)cc1 [Example 71]
3.78	CO/N=C/c1ccc(-c2c(C)cccc2NC(=O)c2sc(C)nc2C(F)(F)F)cc1 [Example 51]
3.94	CO/N=C/c1ccc(-c2ccccc2NC(=O)c2cc(C)oc2C(F)(F)F)cc1 [Example 64]
3.81	CO/N=C/c1cccc(-c2ccccc2NC(=O)c2c(C3CC3)nn(C)c2Cl)c1 [Example 98]
3.97	CO/N=C/c1cccc(-c2ccccc2NC(=O)c2cc(C)oc2C(F)(F)F)c1 [Example 65]
3.95	CO/N=C/c1ccc(-c2ccccc2NC(=O)c2sc(C)nc2C(F)(F)F)cc1Cl [Example 74]
3	CO/N=C/c1ccc(-c2ccccc2NC(=O)c2cn(C)nc2C(F)F)cc1F [Example 114]
4.39	CO/N=C/c1ccc(-c2ccccc2NC(=O)c2sccc2Br)cc1 [Example 56]
3.68	CCc1nn(C)c(Cl)c1C(=O)Nc1ccccc1-c1ccc(/C=N/OC)cc1 [Example 95]
3.21	CO/N=C/c1ccc(-c2ccccc2NC(=O)c2cn(C)nc2C(F)(F)F)cc1F [Example 112]
3.75	CO/N=C/c1cccc(-c2ccccc2NC(=O)c2sc(Cl)nc2C)c1 [Example 68]
3.64	CO/N=C/c1cccc(-c2ccccc2NC(=O)C2=C(C)OCCS2)c1 [Example 59]
3.58	CO/N=C/c1ccc(-c2ccccc2NC(=O)c2ccsc2C)cc1 [Example 110]
4.67	CO/N=C/c1ccc(-c2ccccc2NC(=O)c2cc(Cl)sc2Cl)cc1 [Example 99]
3.2	CO/N=C/c1cccc(-c2ccccc2NC(=O)c2ccco2)c1 [Example 55]
3.99	CO/N=C/c1ccc(-c2ccccc2NC(=O)c2ccc(C(F)(F)F)o2)cc1 [Example 62]

chromatographic logP	SMILES
4.02	CO/N=C/c1cccc(-c2ccccc2NC(=O)c2ccc(C(F)(F)F)o2)c1 [Example 63]
4.22	CCCO/N=C/c1ccc(-c2ccccc2NC(=O)c2c(C)nn(C)c2Cl)cc1 [Example 118]
4.45	CO/N=C/c1cccc(-c2ccccc2NC(=O)c2nc(C)oc2C(F)(F)F)c1 [Example 70]
3.26	CO/N=C/c1ccc(-c2ccccc2NC(=O)c2ccc([N+](=O)[O-])o2)cc1 [Example 101]
3.76	CO/N=C/c1ccc(-c2ccccc2NC(=O)c2c(C3CC3)nn(C)c2Cl)cc1 [Example 97]
3.25	CO/N=C/c1cccc(-c2ccccc2NC(=O)c2cn(C)nc2C(F)(F)F)c1 [Example 52]
4.72	CO/N=C/c1cccc(-c2ccccc2NC(=O)c2cc(Cl)sc2Cl)c1 [Example 100]
3.82	CO/N=C/c1ccc(-c2ccccc2NC(=O)c2cn(C)cc2C(C)C)cc1 [Example 66]
3.59	CO/N=C/c1cccc(-c2ccccc2NC(=O)c2ccsc2C)c1 [Example 111]
3.26	CO/N=C/c1ccc(-c2ccccc2NC(=O)c2sc(C)nc2C(F)F)cc1 [Example 60]
4.39	CO/N=C/c1cccc(-c2ccccc2NC(=O)c2sccc2Br)c1 [Example 57]
2.43	CO/N=C/c1ccc(-c2ccccc2NC(=O)c2cccnc2O)cc1 [Example 113]
3.87	CCn1nc(C)c(C(=O)Nc2ccccc2-c2ccc(/C=N/OC)cc2)c1Cl [Example 103]
3.75	CO/N=C/c1ccc(-c2ccccc2NC(=O)C2=C(C)OCCS2)cc1 [Example 53]
3.8	CO/N=C/c1cccc(-c2ccccc2NC(=O)c2ccc(Br)o2)c1 [Example 72]
3.75	CO/N=C/c1ccc(-c2ccccc2NC(=O)c2sc(Cl)nc2C)cc1 [Example 67]
4.77	CCCCO/N=C(/C)c1ccc(-c2ccccc2NC(=O)c2sc(C)nc2C(F)(F)F)cc1 [Example 77]
3.2	CO/N=C/c1ccc(-c2ccccc2NC(=O)c2ccco2)cc1 [Example 54]
3.37	CO/N=C/c1cccc(-c2ccccc2NC(=O)c2c(C)nn(C)c2Cl)c1 [Example 58]
3.72	CCc1nn(C)c(Cl)c1C(=O)Nc1ccccc1-c1cccc(/C=N/OC)c1 [Example 96]
